Reference: ChEMBL document CHEMBL4421719, “Modulation of k2p channels” (2016)

How the values were obtained:
Assay type in all cases: cell-based
[1] = target: T1, Potassium channel subfamily K member 2 (Homo sapiens) (UniProt O95069); experiment: Activation of K2P2.1 (unknown origin) expressed in Xenopus oocytes assessed as effect on channel currents at -80 mV holding at 100 uM by two-electrode voltage clamp assay relative to control
T1 sequence (whole entry): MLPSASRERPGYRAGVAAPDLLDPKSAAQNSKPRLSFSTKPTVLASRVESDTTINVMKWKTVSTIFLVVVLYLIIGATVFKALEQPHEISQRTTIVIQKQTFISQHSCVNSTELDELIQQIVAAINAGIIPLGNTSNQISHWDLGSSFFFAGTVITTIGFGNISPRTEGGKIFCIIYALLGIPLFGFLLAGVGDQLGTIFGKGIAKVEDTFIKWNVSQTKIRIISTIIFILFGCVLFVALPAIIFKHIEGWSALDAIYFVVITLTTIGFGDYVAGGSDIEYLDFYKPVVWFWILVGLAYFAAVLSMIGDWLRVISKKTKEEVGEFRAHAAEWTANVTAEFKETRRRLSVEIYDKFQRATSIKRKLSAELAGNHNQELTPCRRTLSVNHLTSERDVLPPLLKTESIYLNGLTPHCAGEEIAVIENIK

[2] = target: T2, Potassium channel subfamily K member 4 (Homo sapiens) (UniProt Q9NYG8); experiment: Activation of K2P4.1 (unknown origin) expressed in Xenopus oocytes assessed as effect on channel currents at -80 mV holding potential at 100 uM by two-electrode voltage clamp assay relative to control
T2 sequence (whole entry): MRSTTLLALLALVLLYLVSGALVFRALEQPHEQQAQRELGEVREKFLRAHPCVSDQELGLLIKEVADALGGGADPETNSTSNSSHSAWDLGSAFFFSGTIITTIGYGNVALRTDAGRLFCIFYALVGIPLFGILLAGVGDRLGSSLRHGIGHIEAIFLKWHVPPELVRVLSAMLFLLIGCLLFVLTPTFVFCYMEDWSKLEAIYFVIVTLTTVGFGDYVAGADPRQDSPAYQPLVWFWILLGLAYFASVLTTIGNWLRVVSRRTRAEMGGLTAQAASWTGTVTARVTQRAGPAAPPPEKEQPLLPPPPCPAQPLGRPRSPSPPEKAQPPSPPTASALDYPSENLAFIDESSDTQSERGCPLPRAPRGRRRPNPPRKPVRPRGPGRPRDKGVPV

[3] = target: T3, Potassium channel subfamily K member 5 (Homo sapiens) (UniProt O95279); experiment: Activation of K2P5.1 (unknown origin) expressed in Xenopus oocytes assessed as effect on channel currents at -80 mV holding potential at 100 uM by two-electrode voltage clamp assay relative to control
T3 sequence (whole entry): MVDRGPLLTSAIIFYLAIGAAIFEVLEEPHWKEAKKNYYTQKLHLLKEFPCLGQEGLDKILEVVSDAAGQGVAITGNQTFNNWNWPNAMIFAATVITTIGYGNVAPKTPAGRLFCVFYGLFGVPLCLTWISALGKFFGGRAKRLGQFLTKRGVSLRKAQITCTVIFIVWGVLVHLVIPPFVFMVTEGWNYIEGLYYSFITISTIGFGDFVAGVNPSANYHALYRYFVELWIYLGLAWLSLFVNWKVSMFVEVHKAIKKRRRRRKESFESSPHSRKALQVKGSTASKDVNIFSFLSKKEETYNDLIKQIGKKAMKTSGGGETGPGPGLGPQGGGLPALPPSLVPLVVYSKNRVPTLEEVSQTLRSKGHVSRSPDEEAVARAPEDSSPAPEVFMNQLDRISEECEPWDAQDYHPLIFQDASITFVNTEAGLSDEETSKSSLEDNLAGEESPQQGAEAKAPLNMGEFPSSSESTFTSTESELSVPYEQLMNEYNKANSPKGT

[4] = target: T1, Potassium channel subfamily K member 2 (Homo sapiens); experiment: Activation of K2P2.1 (unknown origin) expressed in HEK293T cell membranes in inside-out patch configuration assessed as effect on channel currents by measuring time of half-maximal activation at 20 uM by two-electrode voltage clamp assay relative to control
[5] = target: T3, Potassium channel subfamily K member 5 (Homo sapiens); experiment: Activation of K2P5.1 (unknown origin) expressed in Xenopus oocytes assessed as effect on channel currents at -80 mV holding potential by two-electrode voltage clamp assay relative to control

Structure (SMILES): CC1(C)c2cc(Cl)ccc2N(CCc2nnn[nH]2)c2ccc(Cl)cc21
- Emax [1]: 11.1%
- Emax [2]: 14.7%
- Emax [3]: 1.7%
- T1/2 [4]: 10.8 s
- Emax [5]: 1.7
